Laboratory results from patent publication US10016414B2, “Modulation of ubiquitination of synaptic proteins for the treatment of neurodegenerative and psychiatric disorders” (UNIVERSITY OF MASSACHUSETTS, priority 2010, dated 2018).
Several values for one entry are separate records, joined by “and”; a condition that tells them apart may be missing. Equal entries are not always repeated. Peptide text beside a SMILES is read from it. * marks the point of attachment. Cbz = O=C(OCc1ccccc1)*

Columns and labels:
[1] = test system: surface GluA1 (AMPAR) in hippocampal neurons; assay: Aβ-induced AMPAR endocytosis: surface GluA1 in cultured hippocampal neurons; assay type: cell-based, rat; settings: for GluA1 surface expression (GluA1 puncta normalized to SV2 puncta and to naïve cultures): 2 hrs, naïve 100%±4%, n=3
Protocol: A. Micrograph showing GluA2 surface expression upon Aβ treatment in the presence or absence of Nutlin-3. Rat hippocampal neurons were cultured, and treated with Aβ or Aβ together with either Nutlin-3 (5 μM) or HLI373 (15 μM) for 2 hours. The final concentration of Aβ was 0.3 ng/mL. Naïve and Nutlin-3 and HLI373 treatments, without Aβ treatment, were used as controls. Surface expression of AMPARs was measured by labeling the cultured neurons in vivo with an antibody to the AMPAR subunit GluA1, followed by confocal microscopy and immunofluorescence quantification by MetaMorph. The number of GluA1 puncta was normalized to SV2 puncta (a presynaptic marker) and to the value in control naïve cultures. […] Scale bar=5 μm. B. Bar graph showing quantification of the percentage of surface GluA1 in response to the various treatment described in A. Results are presented as mean±SEM.
Soluble amyloid beta (Aβ) peptides contribute directly to synapse loss and decreased dendritic spine density and glutamate receptors at the synapse. Moreover, Aβ has been reported to induce AMPAR internalization in cultured neurons. To evaluate the effect of Mdm2 inhibitors on this process, cultured rat hippocampal neurons were treated for 2 hrs with Aβ (or Aβ together with either Nutlin-3 (5 μM) or HLI-373 (15 μM). Aβ can be prepared from 7PA2 Chinese hamster ovary (CHO) cells stably expressing human amyloid precursor protein (APP)751 containing the V717 mutation (Walsh et al., 2005; Shankar et al., 2007; Shankar et al., 2011), and is also available commercially from, e.g., rPeptide (Bogart, G A). The concentration of Aβ in the hippocampal cultures was 0.3 ng/mL. Naïve and Nutlin-3 and HLI-373 treatments were used as controls. Surface expression of AMPARs was measured by labeling the cultured neurons in vivo with an antibody to the AMPAR subunit GluA1, followed by confocal microscopy and immunofluorescence quantification by MetaMorph. The number of GluA1 puncta was normalized to SV2 puncta (a presynaptic marker) and to the value in control naïve cultures (see FIGS. 8A and B).
Minimum inhibitor concentrations of Nutlin-3a or HLI-373, as well as any other Mdm2 inhibitor identified using the screens described supra, can be readily determined by using different ranges of inhibitor concentrations and assessing the effects of the particular concentrations on surface expression of AMPARs. Similar results are expected with other inhibitors of PSD-95 ubiquitination by Mdm2, such as PSD-95 inhibitors.

[2] = test system: PSD-95 degradation; settings: Colledge et al., 2003; cited from earlier work
[3] = test system: 3×Tg-AD mice; settings: Martinez-Coria-LaFeria, 2010; cited from earlier work
[4] = test system: PSD-95 ubiquitination; assay: PSD-95 ubiquitination in acute forebrain slices (PSD-95 immunoprecipitation, ubiquitin/FK1/FK2 immunoblot); assay type: cell-based, mouse; settings: wild-type slices; NMDA 100 μM, 3 min; 10 min after washout
[5] = test system: interaction of β-adaptin with PSD-95; assay: NMDA-dependent interaction of PSD-95 with β-adaptin in acute forebrain slices (co-immunoprecipitation); assay type: cell-based, mouse; settings: NMDA 100 μM, 3 min; for interaction of β-adaptin with PSD-95 (percentage of p53 knockout unstimulated control): n=3
Protocol: A. Immunoblot showing that NMDA receptors regulate the interaction of PSD-95 with β-adaptin. Acute forebrain slices from wild-type mice were stimulated with NMDA (100 μM, 3 min) and, after NMDA washout, incubated for additional 5 or 10 min.
B. Immunoblot showing that genetic deletion of Mdm2 reduces the NMDA-dependent interaction of PSD-95 with β-adaptin. Acute forebrain slices from p53 knockout (control) and Mdm2/p53 double knockout mice were stimulated with NMDA (100 μM, 3 min) and, after NMDA washout, incubated for an additional 5 or 10 min.
Acute forebrain slices were prepared as previously described (Patel et al., 2003; Zhang et al., 2008). Briefly, brains of adult wild-type, p53 knockout or Mdm2/p53 double knockout mice were isolated, and 300 μm coronal slices of forebrain (within the region corresponding approximately to Bregma −1.0 to −3.5 mm, containing the hippocampus) were prepared using a Vibratome (Leica Microsystems VT1000S) in ice-cold oxygenated artificial cerebrospinal fluid (ACSF: 117 mM NaCl, 1.7 mM KCl, 1.2 mM MgCl2, 2.5 mM CaCl2, 1.2 mM NaH2PO4, 25 mM NaHCO3, 11.5 mM glucose). Slices were preincubated in ACSF for 1 h before treatments and all experiments were conducted at 32° C. in 95% O2 and 5% CO2 incubator. NMDA treatment was conducted by incubating slices with 100 μM NMDA for 3 min in ACSFcLTD (124 mM NaCl, 5 mM KCl, 1.5 mM MgCl2, 2.5 mM CaCl2, 1.25 mM NaH2PO4, 26 mM NaHCO3, 10 mM glucose) (Lee et al., 1998). After agonist washout, the slices were further incubated in ACSF-cLTD for the time indicated (5-10 min). Slice lysates were prepared as previously described (Zhang et al., 2008) and PSD-95 immunoprecipitated from the lysates was analyzed by Western blot and quantified as described above. Values were expressed as mean±S.E.M. and statistically compared using analysis of variance (ANOVA).
PSD-95 is important for NMDAR-induced endocytosis of synaptic AMPARs (Colledge et al., 2003; Bhattacharyya et al., 2009) and a brief application of NMDA induces both a rapid and transient increase in PSD-95 ubiquitination, which peaks approximately 10 min after the onset of NMDA treatment (Colledge et al., 2003). […] Following a brief (3 min) stimulation with 100 μM NMDA, a treatment that induces AMPAR endocytosis (Bhattacharyya et al., 2009), acute forebrain slices from adult wildtype mice were analyzed at 5 min and 10 min after agonist washout. PSD-95 immunoprecipitated from slice lysates was analyzed for coimmunoprecipitation of β-adaptin and ubiquitination (FIG. 5A).
To further investigate whether ubiquitination of PSD-95 promotes the interaction of PSD-95 with β-adaptin, this interaction was investigated in acute brain slices derived from mice with a genetic deletion of the ubiquitin ligase Mdm2. Acute forebrain slices from adult Mdm2/p53 double knockout mice and control p53 knockout mice were analyzed at 5 min and 10 min after NMDA (100 μM, 3 min) washout. The interaction of PSD-95 with β-adaptin was assessed by immunoblot of PSD-95 immunoprecipitated from slice lysates (FIG. 5B).

[6] = test system: surface GluA2 (AMPAR) in hippocampal neurons; assay: NMDA-induced AMPAR endocytosis: surface GluA2 by antibody feeding in hippocampal cultures; assay type: cell-based, rat; settings: NMDA 100 μM for 3 min
Protocol: A. Micrograph showing GluA2 surface expression upon NMDA treatment in the presence or absence of Nutlin-3. Cultured hippocampal neurons were subjected to an antibody feeding protocol using an antibody that recognizes an extracellular domain of GluA2. The neurons were subsequently pretreated with Nutlin-3 (5 μM for 30 min) prior to NMDA treatment (100 μM for 3 min), followed by agonist washout. Neurons were incubated for an additional 15 min (with or without Nutlin-3) before immunocytochemical analysis of PSD-95 and surface GluA2 by confocal microscopy.
B. A bar graph depicting the proportion of GluA2 found at the surface of cultured hippocampal neurons upon treatment with or without NMDA, in the presence or absence of Nutlin-3. Results are presented as mean±SEM.
Brief stimulation of NMDARs induces AMPAR endocytosis in cultured neurons (Colledge et al., 2003; Bhattacharyya et al., 2009). To determine whether Nutlin-3a antagonizes NMDA-induced AMPAR endocytosis, measured as loss of surface AMPAR staining, the surface expression of GluA2 (a subunit of AMPARs in rat hippocampal cultures) was assessed. Surface GluA2 were labeled in vivo by an antibody feeding protocol using an antibody that recognizes an extracellular domain of GluA2 (Ehlers, 2000; Lin et al., 2000; Bhattacharyya et al., 2009). Neurons were pretreated with Nutlin-3a (5 μM for 30 min) prior to NMDA treatment. After brief stimulation with NMDA (100 μM for 3 min) and agonist washout, neurons were incubated for an additional 15 min (with or without Nutlin-3a) before immunocytochemical analysis of PSD-95 and surface GluA2 by confocal microscopy under the same settings. Immunostained puncta were quantified using MetaMorph software (3 neurons from 2 coverslips with approximately 450 puncta analyzed/condition) and the number of GluA2 puncta was normalized to the number of PSD-95 puncta.
Naïve and NMDA-stimulated conditions were used as controls. […]

CN(C)CCCNc1c2c(=O)n(C)c(=O)nc-2n(C)c2ccccc12 [HLI-373]
effect on loss of surface GluA1 induced by Aβ ([1]; Aβ 0.3 ng/mL, 2 hours, Nutlin-3 5 μM, HLI373 15 μM): prevented the loss of surface GluA1 induced by Aβ treatment
GluA1 surface expression (GluA1 puncta normalized to SV2 puncta and to naïve cultures) ([1]; co-treatment with Aβ 0.3 ng/mL, Nutlin 5 μM, HLI373 15 μM): 132.18%±11.33%
GluA1 surface expression (GluA1 puncta normalized to SV2 puncta and to naïve cultures) ([1]; inhibitor alone, without Aβ, Nutlin-3 5 μM, HLI-373 15 μM): 170.95%±5.37%

CC(C)C[C@@H](C=O)NC(=O)[C@H](CC(C)C)NC(=O)[C@H](CC(C)C)NC(=O)OCc1ccccc1 [MG132] (Cbz-Leu-Leu-Leu-aldehyde)
effect on PSD-95 degradation [2]: protect PSD-95 from degradation

CC12CC3CC(C)(C1)CC(N)(C3)C2 [Memantine, 1-amino-3,5-dimethyl-adamantane]
AD-like neuropathology in 3×Tg-AD mice [3]: reduce AD-like neuropathology
cognition in 3×Tg-AD mice [3]: improve cognition

CN[C@H](CC(=O)O)C(=O)O [NMDA, N-Methyl-D-aspartic acid]
PSD-95 ubiquitination (FK2 immunoblot) versus unstimulated control [4]: increased ubiquitination at 10 min after NMDA washout
interaction of β-adaptin with PSD-95 (percentage of p53 knockout unstimulated control) ([5]; Mdm2/p53 double knockout slices, 5 min after washout): 45.6%±1.8%
interaction of β-adaptin with PSD-95 (percentage of p53 knockout unstimulated control) ([5]; Mdm2/p53 double knockout slices, 10 min after washout): 99.8%±43.7%
interaction of β-adaptin with PSD-95 (percentage of p53 knockout unstimulated control) ([5]; p53 knockout slices, 5 min after washout, control 100%±14.9%): 209.0%±72.6%
interaction of β-adaptin with PSD-95 (percentage of p53 knockout unstimulated control) ([5]; p53 knockout slices, 10 min after washout): 549.8%±168% and 549.8%±167.7%
coimmunoprecipitation of β-adaptin with PSD-95 versus unstimulated control ([5]; wild-type slices, 10 min after washout): coimmunoprecipitation of β-adaptin with PSD-95 10 min after NMDA washout
PSD-95 puncta following NMDA stimulation of naïve cultures [6]: did not decrease
GluA2 surface expression (GluA2 puncta normalized to PSD-95 puncta, versus naïve control) ([6]; then 15 min, no inhibitor, naïve 100%±9.47%, n=3): 41.95±9.63%
